From ChEMBL document CHEMBL4390686, “Design, Synthesis, and Pharmacokinetic Evaluation of Phosphate and Amino Acid Ester Prodrugs for Improving the Oral Bioavailability of the HIV-1 Protease Inhibitor Atazanavir” (J Med Chem, 2019)
Converted amounts (≈) assume the structure as drawn.

What was measured:
[1] = target: Protease (Human immunodeficiency virus 1, UniProt Q9YQ12)
Description: Inhibition of HIV1 protease activity

[2] = Ratio of test compound to atazanavir aqueous solubility in pH 4 citrate buffer by RP-UPLC analysis; format: physicochemical
[3] = target: T1, UGT1A1 (Homo sapiens, UniProt P22309); assay: Ratio of test compound IC50 to atazanavir IC50 for recombinant human UGT1A1; format: ADME; conditions: read-out: Ratio IC50
T1 sequence (P22309 whole entry): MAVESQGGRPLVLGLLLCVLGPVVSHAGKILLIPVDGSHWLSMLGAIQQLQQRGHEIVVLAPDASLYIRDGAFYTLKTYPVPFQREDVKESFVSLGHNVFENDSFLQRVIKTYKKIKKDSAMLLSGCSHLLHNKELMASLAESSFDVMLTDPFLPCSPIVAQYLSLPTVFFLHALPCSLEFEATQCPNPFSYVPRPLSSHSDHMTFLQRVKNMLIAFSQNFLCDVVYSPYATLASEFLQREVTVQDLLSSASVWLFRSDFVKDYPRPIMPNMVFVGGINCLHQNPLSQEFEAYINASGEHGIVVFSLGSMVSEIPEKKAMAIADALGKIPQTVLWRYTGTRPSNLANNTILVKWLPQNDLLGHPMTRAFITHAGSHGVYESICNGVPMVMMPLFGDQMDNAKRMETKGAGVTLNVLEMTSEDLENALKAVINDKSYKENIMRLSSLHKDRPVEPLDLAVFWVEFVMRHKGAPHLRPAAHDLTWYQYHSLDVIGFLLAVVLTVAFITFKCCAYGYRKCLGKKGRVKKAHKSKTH

[4] = physchem; conditions: 30% CH3CN/phosphate buffer, pH 6.5
Description: Half life in pH 6.5 30%CH3CN/phosphate buffer at 50 mM by RP-UPLC analysis

[5] = Ratio of test compound to atazanavir aqueous solubility in pH 6.5 phosphate buffer by RP-UPLC analysis; format: physicochemical
[6] = Drug metabolism in cannulated Sprague-Dawley rat assessed as prodrug to atazanavir ratio at 30 mg/kg equiv of atazanavir administered orally by UPLC/MS/MS analysis; format: ADME, organism-based; conditions: in vivo, po
[7] = Elimination half life in rat hepatocytes at 1 uM in presence of esterase inhibitor PMSF; format: ADME, cell-based, Hepatocyte; conditions: with PMSF (esterase inhibitor), read-out: beta t1/2
[8] = Elimination half life in rat hepatocytes at 1 uM in absence of esterase inhibitor PMSF/CYP450 inhibitor ABT; format: ADME, cell-based, Hepatocyte; conditions: read-out: beta t1/2
[9] = target: T2, UDP-glucuronosyltransferase 1A1 (Homo sapiens, UniProt P22309); assay: Inhibition of UGT1A1 in human liver microsomes using beta-estradiol as substrate preincubated for 5 mins followed by substrate addition and measured after 40 mins by LC-MS/MS analysis; format: ADME
T2 sequence (P22309 whole entry): T1 sequence (P22309 whole entry)

[10] = target: T3, UGT1A1 (Rattus norvegicus, UniProt Q64550); assay: Ratio of test compound IC50 to atazanavir IC50 for UGT1A1 in rat liver microsomes; format: ADME; conditions: read-out: Ratio IC50
T3 sequence (Q64550 whole entry): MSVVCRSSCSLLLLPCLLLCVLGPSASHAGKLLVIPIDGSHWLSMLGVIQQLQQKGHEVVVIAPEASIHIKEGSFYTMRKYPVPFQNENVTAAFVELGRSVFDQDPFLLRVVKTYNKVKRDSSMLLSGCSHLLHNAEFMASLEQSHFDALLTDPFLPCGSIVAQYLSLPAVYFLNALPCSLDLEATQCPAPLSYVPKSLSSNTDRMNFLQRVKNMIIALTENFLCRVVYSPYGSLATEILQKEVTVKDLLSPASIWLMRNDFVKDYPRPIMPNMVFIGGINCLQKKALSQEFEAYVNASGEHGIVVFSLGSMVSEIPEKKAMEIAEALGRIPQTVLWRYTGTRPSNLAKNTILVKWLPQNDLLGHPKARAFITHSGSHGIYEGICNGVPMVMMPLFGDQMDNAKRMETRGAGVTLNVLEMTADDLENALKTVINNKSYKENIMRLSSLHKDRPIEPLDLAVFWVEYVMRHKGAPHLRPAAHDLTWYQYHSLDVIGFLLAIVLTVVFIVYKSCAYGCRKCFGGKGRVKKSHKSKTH

[11] = Drug recovery in intestinal content of closed loop rat intestinal model at 1 mg/kg administered as cassette dose by LC/MS analysis; format: ADME, organism-based; conditions: in vivo
[12] = Drug recovery in intestinal homogenates of closed loop rat intestinal model at 1 mg/kg administered as cassette dose by LC/MS analysis; format: ADME, organism-based, Intestine; conditions: intestinal homogenate, other: closed loop intestinal model, read-out: Drug recovery
[13] = physchem; conditions: acetate buffer, pH 4
Description: Aqueous solubility of the compound in pH 4 acetate buffer by RP-UPLC analysis

[14] = Elimination half life in rat hepatocytes at 1 uM in presence of CYP450 inhibitor ABT; format: ADME, cell-based, Hepatocyte; conditions: with ABT (CYP450 inhibitor), read-out: beta t1/2
[15] = Ratio of test compound to atazanavir aqueous solubility in pH 3 buffer by RP-UPLC analysis; format: physicochemical
[16] = Tmax in cannulated Sprague-Dawley rat assessed as atazanavir level at 6 mg/kg equiv of atazanavir administered orally by UPLC/MS/MS analysis; format: ADME, organism-based; conditions: in vivo, po
[17] = Ratio of test compound to atazanavir aqueous solubility in pH 4 acetate buffer by RP-UPLC analysis; format: physicochemical
[18] = in vitro; conditions: human, Caco-2
Description: Apparent permeability across apical to basolateral side in human Caco2 cells at 2 uM

[19] = rat, in vivo, po, 3 mg/kg
[20] = target: T2, UDP-glucuronosyltransferase 1A1; assay: Inhibition of recombinant human UGT1A1 using bilirubin as substrate preincubated for 5 mins followed by substrate addition and measured after 40 mins by LC-MS/MS analysis; format: ADME
[21] = Prodrug conversion in rat hepatocytes assessed as pseudo first order rate constant for atazanavir formation at 1 uM in presence of CYP450 inhibitor ABT; format: ADME, cell-based, Hepatocyte
[22] = Drug recovery in mesenteric vein plasma of closed loop rat intestinal model at 1 mg/kg administered as cassette dose by LC/MS analysis; format: ADME, organism-based; conditions: in vivo
[23] = physchem; conditions: HCl buffer, pH 1
Description: Aqueous solubility of the compound in pH 1 HCl buffer by RP-UPLC analysis

[24] = target: T3, UGT1A1; assay: Ratio of test compound IC50 to atazanavir IC50 for recombinant rat UGT1A1; format: ADME; conditions: read-out: Ratio IC50
[25] = in vitro; conditions: human, Caco-2; remark: listed apart in the source
Description: Apparent permeability across basolateral to apical side in human Caco2 cells at 2 uM

[26] = physchem; conditions: 30% CH3CN/HCl buffer, pH 1
Description: Half life in pH 1 30%CH3CN/HCl buffer at 50 mM by RP-UPLC analysis

[27] = AUClast in cannulated Sprague-Dawley rat assessed as atazanavir level at 6 mg/kg equiv of atazanavir administered orally by UPLC/MS/MS analysis; format: ADME, organism-based; design: dose 6 mg/kg, time 0 - last, route oral; conditions: in vivo, po
[28] = AUClast in cannulated Sprague-Dawley rat assessed as atazanavir level at 30 mg/kg equiv of atazanavir administered orally by UPLC/MS/MS analysis; format: ADME, organism-based; design: dose 30 mg/kg, route oral, time 0 - last; conditions: in vivo, po
[29] = Cmax in cannulated Sprague-Dawley rat assessed as atazanavir level at 30 mg/kg equiv of atazanavir administered orally by UPLC/MS/MS analysis; format: ADME, organism-based; design: dose 30 mg/kg, route oral; conditions: in vivo, po

Protease, sequence (Q9YQ12 whole entry): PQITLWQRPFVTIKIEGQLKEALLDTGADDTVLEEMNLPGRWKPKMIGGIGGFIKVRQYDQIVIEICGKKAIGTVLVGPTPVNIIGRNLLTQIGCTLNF

COC(=O)N[C@H](C(=O)N[C@@H](Cc1ccccc1)[C@H](CN(Cc1ccc(-c2ccccn2)cc1)NC(=O)[C@@H](NC(=O)OC)C(C)(C)C)OC(=O)[C@@H](N)Cc1ccccc1)C(C)(C)C
IC50 [1]: 4 to 1140 nM | Ratio [2]: 1100 | selectivity ratio [3]: 9.3 | half-life at 50000 µM [4]: > 20.8 days | Ratio [5]: 27 | Ratio [6]: 0.3 | half-life at 1 µM [7]: 77 min | half-life at 1 µM [8]: 42 min | IC50 [9]: 2500 nM | selectivity ratio [10]: 5.7 | Drug recovery [11]: 32% | recovery [12]: 5.6% | solubility [13]: 1100 to 4100 µg/mL (≈ 1290 to 4810 µM) | half-life at 1 µM [14]: > 120 min | Ratio [15]: 114 | Tmax [16]: 30 min | Ratio [17]: 4100 | Papp A→B at 2 µM [18]: < 1.5 ×10⁻⁶ cm/s | Cmax [19]: 456 nM | IC50 [20]: 2800 nM | K [21]: 0.0042 min⁻¹ | Drug recovery [22]: 2.8% | solubility [23]: > 1500 µg/mL | selectivity ratio [24]: 3 | Papp B→A at 2 µM [25]: 13.1 ×10⁻⁶ cm/s | half-life at 50000 µM [26]: > 20.8 days | AUClast [27]: 913 nM·h | AUClast [28]: 19.67 µM·h | Cmax [29]: 4.72 µM
